Series [1] relates to d-U937 cells. Description: LPS-induced TNFα/IL-8 release in d-U937 cells. Type of series: cell-based. The note with it: Homo sapiens, dU937, assay (aa). Here is the method:
U937 cells, a human monocytic cell line, are differentiated to macrophage-type cells by incubation with phorbol myristate acetate (PMA; 100 ng/mL) for 48 to 72 hr. Cells are pre-incubated with final concentrations of test compound for 2 hr and are then stimulated with 0.1 μg/mL of LPS (from E. Coli: 0111:B4, Sigma) for 4 hr. The supernatant is collected for determination of TNFα and IL-8 concentrations by sandwich ELISA (Duo-set, R&D systems). […] The relative 50% effective concentration (REC50) is determined from the resultant concentration-response curve. The inhibition of IL-8 production is calculated at each concentration of test compound by comparison with vehicle control.

The test system of series [2] is PBMCs. Put plainly: LPS-induced TNFα/IL-8 release in PBMC cells. The series is classed as cell-based. Particulars: Homo sapiens, assay (b), read-out: IC50 Values for Inhibition of Cytokine Release PBMCs IL-8. The procedure, abridged: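 Healthy-donor PBMCs isolated by density gradient were pretreated with compound for 2 h, then stimulated with 1 ng/mL LPS (E. coli 0111:B4) for 24 h at 37° C., 5% CO2. IL-8 and TNFα in supernatants measured by sandwich ELISA.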

For series [3], the system named is PBMCs. Description: IL-2 and IFN gamma release in CD3/CD28 stimulated PBMC cells. Type of series: cell-based. The note with it: Homo sapiens, assay (c). The gist of the method: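 Healthy-donor PBMCs, density-gradient isolated, stimulated on plates pre-coated with anti-CD3 (0.3 μg/mL) and anti-CD28 (3 μg/mL) antibodies, with compound, for 3 days under standard culture conditions. IC50 derived from the dose-response curve.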

For series [4], the system named is HT29 cells. Put plainly: IL-1β-induced IL-8 release in HT29 cells. Type of series: cell-based. The note with it: Homo sapiens, HT-29, assay (d), read-out: IC50 Values for Inhibition of Cytokine Release HT29 cells IL-8. On the procedure: HT29 cells, a human colon adenocarcinoma cell line, are plated in a 96 well plate (24 hr) and pre-treated with compounds at the desired concentration for 2 hours before addition of 5 ng/mL of IL-1β (Abcam) for 24 hours. Supernatants are harvested for IL-8 quantification by Sandwich ELISA (Duo-set, R&D System). The IC50 is determined from the dose response curve.

The subject of series [5] is PBMCs. Description: Cell mitosis assay in PBMCs. Type of series: cell-based. Particulars: Homo sapiens, PBMC, 5 μg/mL. The gist of the method: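 Human PBMCs from healthy donors, density-gradient isolated, stimulated with 2% PHA 48 h, then exposed 20 h to test compounds; demecolcine 0.1 μg/mL added 2 h before harvest. Fixed/permeabilised cells stained for phospho-histone H3 and propidium iodide; mitotic lymphocytes counted by flow cytometry.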

Series [6] has as its system BDF1 mice. Put plainly: TNBS-induced colitis in mice. The series is classed as in vivo. The note with it: conducted over 2 days; vehicle corn oil/transcutol/maisine/cremophor ELP. On the procedure: Non-fasted, 10-12 week old, male BDF1 mice are dosed by oral gavage twice daily with either vehicle (5 mL/kg), reference item (Budesonide 2.5 mg/kg) or test compound (1 or 5 mg/kg) one day before (Day −1) stimulation of the inflammatory response by treatment with 2,4,6-trinitrobenzenesulphonic acid (TNBS) (15 mg/mL in 50% ethanol/50% saline). On Day 0 of the study TNBS (200 μL) is administered intra-colonically via a plastic catheter with BID dosing of the vehicle, reference or test compound continuing for 2 or 4 days. During the study, animals are weighed every day and stool observations are made and recorded as a score, based on stool consistency. At the time of sacrifice on Day 2 (or Day 4), the large intestine is removed and the length and weight recorded. Sections of the colon are taken for histopathology scoring to determine disease severity.

Series [7] has as its system SCID animals. Put plainly: Adoptive transfer in mice (CD45RBhigh cells into SCID animals). Type of series: in vivo. The note with it: end of the study. On the procedure:
On Study day 0, female Balb/C mice are terminated and spleens obtained for CD45RB^high cell isolation (Using SCID IBD cell Separation protocol). Approximately 4×10^5 cells/mL CD45RB^high cells are then injected intraperitoneally (100 μL/mouse) into female SCID animals. On study day 14, mice are weighed and randomized into treatment groups based on body weight. On Day 14, compounds are administered BID, via oral gavage, in a peanut oil vehicle at the dose levels outlined below in Tables 6a and 6b and a dose volume of 5 mL/kg. Treatment continues until study day 42, at which point the animals are necropsied 4 hours after the morning administration. The colon length and weight are recorded and used as a secondary endpoint in the study as a measurement of colon oedema. The colon is then divided into six cross-sections, four of which are used for histopathology scoring (primary endpoint) and two are homogenised for cytokine analysis. Data shown is the % inhibition of the induction window between naïve animals and vehicle animals, where higher inhibition implies closer to the non-diseased, naïve, phenotype.

Series [8] in a line: Plasma pharmacokinetics and total colon tissue distribution in mice, single oral administration. The note with it: male, C57BL/6, mouse, 5 mg/kg, read-out: Median plasma concentration. Type of series: in vivo, C57BL/6 mice. On the procedure:
(§1) Studies were conducted by Sai Life Sciences (Hinjewadi, Pune, India) to investigate the plasma pharmacokinetics and total colon tissue distribution of compounds of the invention. In particular, pharmacokinetic studies were carried out in: • male C57BL/6 mice, following a single oral administration; and • male Wistar rats following a single intravenous or oral administration.

Series [9] in a line: Plasma pharmacokinetics in rats, single intravenous or oral administration. Type of series: in vivo. The note with it: male, Wistar, rat. Here is the method: as §1
In series [10] the test system is Lewis rats. Description: Endotoxin-induced uveitis in rats. The series is classed as in vivo. The note with it: rats treated with intravitreal endotoxin LPS. Here is the method: Male, Lewis rats (6-8 weeks old, Charles River UK Limited) are housed in cages of 3 at 19-21° C. with a 12 h light/dark cycle (07:00/19:00) and fed a standard diet of rodent chow and water ad libitum. Non-fasted rats are weighed, individually identified on the tail with a permanent marker, and receive a single intravitreal administration into the right vitreous humor (5 μL dose volume) of 100 ng/animal of LPS (Escherichia coli 0111:B4 prepared in PBS, Sigma Aldrich, UK) using a 32-gauge needle. Untreated rats are injected with PBS. Test compound, dexamethasone (Dex) or vehicle (20% hydroxypropyl-β-cyclodextrin, 0.1% HPMC, 0.01% Benzalkonium chloride, 0.05% EDTA, 0.7% NaCl in deionised water) are administered by the topical route onto the right eye (10 μL) of animals 30 minutes prior to LPS, at the time of LPS administration, and 1, 2 and 4 hours post LPS administration. Before administration, the solution or suspension to be administered is agitated for 5 minutes to ensure a uniform suspension. 6 hours after LPS dosing, animals are euthanized by overdose with pentobarbitone (i.v.). Following euthanasia, the right eye of each animal is enucleated and dissected into front (anterior) and back (posterior) sections around the lens. Each section is weighed and homogenised in 500 μL of sterile phosphate buffered saline followed by 20 minutes centrifugation at 12000 rpm at 4° C. The resulting supernatant is divided into 3 aliquots and stored at −80° C. until subsequent cytokine analysis by R&D DuoSet ELISA.

The nature of series [11]: Hydrolytic stability study (DMSO/water 3:1, 60° C.). The series is classed as physicochemical. Here is the method: Chemical stability of compounds of the invention was assessed in a mixture of DMSO and water (3:1) at a test compound concentration of 1 mg/mL
Agilent, Waters X-Select C18, 2.5 μm, 4.6×30 mm column, 4 min method, 5-95%
MeCN/water (0.1% formic acid).
Column Oven Temperature 40° C.
Sample Preparation • A 1.0 mg sample of test compound was dissolved in 750 μL of DMSO. Water (250 μL) was added slowly, ensuring no precipitation occurred.
Recording Stability • A 50 μL aliquot of the test solution was removed and analysed in duplicate by 5 μL HPLC injections. The peak area for the test compound was recorded following manual integration of the corresponding UV trace. • The test solution was heated to 60° C., with stirring, and 50 μL aliquots removed for HPLC analysis at 5 and 24 h timepoints.

[12] abbreviates: read-out: IC50 Values for Inhibition of Cytokine Release PBMCs IFNγ.
[13] abbreviates: read-out: IC50 Values for Inhibition of Cytokine Release PBMCs IL-2.
Where [14] appears, read: po, 5 mg/kg, read-out: Median plasma concentration.

SMILES strings stand for the structures. Like-named read-outs stand apart in the source and are kept apart here.

From patent US10435361B2, “Kinase inhibitors” (Topivert Pharma Limited, priority 2013, dated 2019) come the findings set out here.

What is called IC50 is the point on the concentration scale where inhibition reaches its midpoint. The inhibition is the percentage by which the read-out fell short of the control.

As for `COCCOCCOCCNC(=O)c1cc(Nc2cc(Oc3ccc(NC(=O)Nc4cc(C(C)(C)C)cc(NS(C)(=O)=O)c4OC)c4ccccc34)ccn2)cc(OC)c1` [Example 3, 3-((4-((4-(3-(5-(tert-Butyl)-2-methoxy-3-(methylsulfonamido)phenyl)ureido)naphthalen-1-yl)oxy)pyridin-2-yl)amino)-5-methoxy-N-(2-(2-(2-methoxyethoxy)ethoxy)ethyl)benzamide], the IC50 in [1] (method: relative to 10 μg/mL BIRB796 (REC50), read-out: IC50 Values for Inhibition of Cytokine Release dU937 cells TNFα) came to 0.4 nM. The IC50 in [1] (read-out: IC50 Values for Inhibition of Cytokine Release dU937 cells IL-8) came out at 1.3 nM. Besides, the IC50 in series [2] is 1.2 nM. The IC50 in series [3] (setting [12]) is 9.6 nM. The IC50 in [3] (setting [13]) was 190 nM. In series [4], the IC50 was found to be 8.1 nM. This compound also showed an inhibition at 5 µg/mL in [5] of 31.7%. For the same compound, the “activity in TNBS-induced colitis (histopathology analysis)” value (“activity … (histopathology analysis)” for short) in [6] is on record as “displayed substantial activity”. Also, in series [7], the “activity in adoptive transfer model (ratios of colon weight to length)” value is “displayed significant activity”. For the same compound, in series [8], the concentration at 1 h was 0 ng/mL, the concentration at 2 h worked out at 0 ng/mL, the concentration at 4 h amounted to 0 ng/mL and the concentration at 8 h is 0 ng/mL. For the same compound, in series [8], the concentration at 12 h stood at 0 ng/mL and the concentration at 24 h turned out to be 0 ng/mL. In [9] (setting [14]), the concentration at 0.5 h was determined as 0 ng/mL, the concentration at 1 h turned out to be 0 ng/mL, the concentration at 2 h amounted to 0 ng/mL and the concentration at 4 h amounted to 0 ng/mL. For the same compound, in series [9] (setting [14]), the concentration at 6 h stood at 0 ng/mL, the concentration at 8 h is 0 ng/mL, the concentration at 12 h worked out at 0 ng/mL and the concentration at 24 h was determined as 0 ng/mL. In series [9] (rats, intravenous 0.25 mg/kg), this compound came in with a clearance of 5.1 mL/min/kg.

As for `COCCOCCOCCOc1cc(Nc2cc(Oc3ccc(NC(=O)Nc4cc(C(C)(C)C)cc(C(N)=O)c4OC)c4ccccc34)ccn2)cc(OC)c1` [Example 34, 5-(tert-Butyl)-2-methoxy-3-(3-(4-((2-((3-methoxy-5-(2-(2-(2-methoxyethoxy)ethoxy)ethoxy)phenyl)amino)pyridin-4-yl)oxy)naphthalen-1-yl)ureido)benzamide], the IC50 worked out at 3 nM in series [2], 7.6 nM in series [3] (setting [12]), 62.5 nM in series [3] (setting [13]) and 2.1 nM in [4]. Also, in [5], testing at 5 µg/mL gave an inhibition of 40.4%. In addition, in [6], the “activity … (histopathology analysis)” value is given as “displayed substantial activity”.

`COc1cc(Nc2cc(Oc3ccc(NC(=O)Nc4cc(C(C)(C)C)cc(NS(C)(=O)=O)c4OC)c4ccccc34)ccn2)cc(C(=O)NCCCN2CCOCC2)c1` [Example 66, 3-((4-((4-(3-(5-(tert-Butyl)-2-methoxy-3-(methylsulfonamido)phenyl)ureido)naphthalen-1-yl)oxy)pyridin-2-yl)amino)-5-methoxy-N-(3-morpholinopropyl)benzamide]: the half-maximal inhibitory concentration (IC50) in series [2] was 1.9 nM; in series [3] (setting [12]), 20.2 nM; in series [3] (setting [13]), 49.2 nM; in [4], 16.4 nM. In [5], the inhibition at 5 µg/mL was 66.6%. Also, the “cytokine levels in the anterior and posterior segments of the eyes” value in series [10] is “significantly reduced”.

In the case of `COc1cc(Nc2cc(Oc3ccc(NC(=O)Nc4cc(C(C)(C)C)cc(NS(C)(=O)=O)c4OC)c4ccccc34)ccn2)cc(C(=O)NCCN2CCN(C)CC2)c1` [Example 79, 3-((4-((4-(3-(5-(tert-Butyl)-2-methoxy-3-(methylsulfonamido)phenyl)ureido)naphthalen-1-yl)oxy)pyridin-2-yl)amino)-5-methoxy-N-(2-(4-methylpiperazin-1-yl)ethyl)benzamide], the IC50 in series [2] stood at 3.4 nM; in series [3] (setting [12]), 5.9 nM; in series [3] (setting [13]), 284 nM; in series [4], 13.1 nM. The compound further showed an inhibition at 5 µg/mL in [5] of 54.4%. In [6], the “activity … (histopathology analysis)” value is given as “displayed substantial activity”.

`C#Cc1cc(Nc2nccc(Oc3ccc(NC(=O)Nc4cc(C(C)C)nn4-c4ccc(C)cc4)c4ccccc34)n2)cc(C(=O)NCCN2CCOCC2)c1` [Reference Compound B, 3-ethynyl-5-((4-((4-(3-(3-isopropyl-1-(p-tolyl)-1H-pyrazol-5-yl)ureido)naphthalen-1-yl)oxy)pyrimidin-2-yl)amino)-N-(2-morpholinoethyl)benzamide, reference compound]: the “decomposition in hydrolytic stability study” value in series [11] (1 mg/mL in DMSO:water (3:1), 60° C., 5 and 24 h) is given as “underwent substantial decomposition”. Further, the “% Parent Remaining” value is 100% in series [11] (DMSO/water 3:1, 0 min); 82% in series [11] (DMSO/water 3:1, 60° C., 300 min); 36% in series [11] (DMSO/water 3:1, 60° C., 1440 min).
